Test results published in patent US20030022158A1, “Peptides from the TT virus sequence and monospecific antibodies binding to the TT virus” (priority 1999, published 2003).

Key:
[1] = system: human IgG antibodies in human serum samples; experiment: EIA of human antibody reactivities to overlapping synthetic peptides of TTV ORF1 and ORF2 (Tables 2 and 3); assay type: binding; settings: for optical density (OD) at 405 nm: serum diluted 1:100, OD over 0.500 considered positive; for human reactivity to peptide (reactive peptides within ORF1): tested human sera, EIA
Excerpt: Overlapping peptides (18 amino acids in length containing an 8 amino acid overlap) corresponding to regions of the ORFI and ORF2 of TTV (TABLE 1; Genebank accession no AB008394) were produced by a multiple peptide synthesizer (Syro, Syntex, Germany) using standard Fmoc chemistry (Sallberg et al., Immunology Letters, 30:59 68 (1991), herein expressly incorporated by reference in its entirety).
(§1) The EIAs used to identify which peptides interacted with human sera followed protocols known in the art. (See Zhang et al., J Gen Virol, 78:2735-2746 (1997), herein expressly incorporated by reference in its entirety). Briefly, microplates (Nunc, Denmark) were coated for 48 hours with synthetic peptides at a concentration of 10 μg/ml in 0.05M sodium carbonate buffer pH 9.6. After blocking for 2 hours at room temperature with phosphate buffered saline containing 1% bovine serum albumin, 2% goat serum and 0.05% Tween 20 (dilution buffer) the plates were incubated with human sera diluted 1:100 in dilution buffer. Bound human IgG was detected by incubation with anti-human IgG antibodies conjugated to alkaline phosphatase (Sigma Chemicals, St. Louis, Mo.). The plates were developed by the addition of […] (Sigma) and the optical densities were determined at 405 nm.

[2] = system: human antibodies in human serum samples; experiment: EIA reactivities of three human serum samples with deletion and alanine substitution analogues of SEQ ID NO: 1 (Table 6); assay type: binding; settings: positive = more than 50% of the reactivity of the original peptide
Method: as §1
The reactivity to the TATTTTYAYPGTNRPPV (SEQ ID NO: 1) peptide was further characterized by mapping the reactivity of deletion and substitution peptide analogues.

[3] = human serum sample 1, negative for TTV DNA by PCR
[4] = human serum sample 2, negative for TTV DNA by PCR
[5] = human serum sample 3, negative for TTV DNA by PCR
[6] = human serum sample 4, negative for TTV DNA by PCR
[7] = human serum sample 5, negative for TTV DNA by PCR
[8] = human serum sample 6, negative for TTV DNA by PCR
[9] = human serum sample 7, negative for TTV DNA by PCR
[10] = human serum sample 9, positive for TTV DNA by PCR
[11] = human serum sample 11, negative for TTV DNA by PCR
[12] = human serum sample 18, positive for TTV DNA by PCR
[13] = human serum sample 36, positive for TTV DNA by PCR
[14] = human serum sample 48, positive for TTV DNA by PCR
[15] = human serum sample 98, positive for TTV DNA by PCR
[16] = human serum sample 110, positive for TTV DNA by PCR
[17] = human serum sample 155, positive for TTV DNA by PCR
[18] = human serum sample 157, positive for TTV DNA by PCR

| Substance | optical density (OD) at 405 nm [1, 3] [OD] | optical density (OD) at 405 nm [1, 4] [OD] | optical density (OD) at 405 nm [1, 5] [OD] | optical density (OD) at 405 nm [1, 6] [OD] | optical density (OD) at 405 nm [1, 7] [OD] | optical density (OD) at 405 nm [1, 8] [OD] | optical density (OD) at 405 nm [1, 9] [OD] | optical density (OD) at 405 nm [1, 10] [OD] | optical density (OD) at 405 nm [1, 11] [OD] | optical density (OD) at 405 nm [1, 12] [OD] | optical density (OD) at 405 nm [1, 13] [OD] | optical density (OD) at 405 nm [1, 14] [OD] | optical density (OD) at 405 nm [1, 15] [OD] | optical density (OD) at 405 nm [1, 16] [OD] | optical density (OD) at 405 nm [1, 17] [OD] | optical density (OD) at 405 nm [1, 18] [OD] | human reactivity to peptide (reactive peptides within ORF1) [1] | OD at 405 nm, reactivity of human serum sample P4 [2] [OD] | OD at 405 nm, reactivity of human serum sample P7 [2] [OD] | OD at 405 nm, reactivity of human serum sample P36 [2] [OD] | also measured |
| --- | --- | --- | --- | --- | --- | --- | --- | --- | --- | --- | --- | --- | --- | --- | --- | --- | --- | --- | --- | --- | --- |
| DQNIHMNARLLIRSPFT (Peptide Immunogen) [compound 50, overlapping synthetic peptide of TTV ORF1] | 0.07 | 0.09 | 0.08 | 0.09 | 0.08 | 0.86 | 0.29 | 0.08 | 0.18 | 0.07 | 0.07 | 0.07 | 0.10 | 0.20 | 0.63 | 0.46 | Reactive | 0.836 | 1.769 | 0.850 |  |
| 21: overlapping synthetic peptide of TTV ORF1 (TATTTTYAYPGTNRP) [compound 21] | 0.00 | 0.00 | 0.00 | 0.00 | 0.00 | 0.00 | 0.00 | 0.00 | 0.00 | 0.00 | 0.00 | 0.00 | 0.00 | 0.00 | 0.00 | 0.00 |  | 0.100 | 0.099 | 0.078 |  |
| 22: overlapping synthetic peptide of TTV ORF1 (TATTTTYAYPGTNR) [compound 22] | 0.07 | 0.07 | 0.07 | 0.08 | 0.08 | 0.09 | 0.09 | 0.08 | 0.11 | 0.07 | 0.08 | 0.10 | 0.04 | 0.07 | 0.11 | 0.11 |  | 0.092 | 0.103 | 0.078 |  |
| 20: overlapping synthetic peptide of TTV ORF1 (TATTTTYAYPGTNRPP) [compound 20] | 0.07 | 0.06 | 0.06 | 0.07 | 0.06 | 0.08 | 0.08 | 0.08 | 0.11 | 0.07 | 0.07 | 0.09 | 0.04 | 0.06 | 0.09 | 0.10 |  | 0.096 | 0.144 | 0.086 | optical density (OD) at 405 nm, EIA reactivity of human serum sample 1 ([1]; serum sample 1, negative for TTV DNA by PCR, serum 1:100, peptide coated 10 μg/ml, OD over 0.500 positive): 0.09 OD; optical density (OD) at 405 nm, EIA reactivity of human serum sample 2 ([1]; serum sample 2, negative for TTV DNA by PCR, serum 1:100, peptide coated 10 μg/ml, OD over 0.500 positive): 0.10 OD; optical density (OD) at 405 nm, EIA reactivity of human serum sample 3 ([1]; serum sample 3, negative for TTV DNA by PCR, serum 1:100, peptide coated 10 μg/ml, OD over 0.500 positive): 0.09 OD; optical density (OD) at 405 nm, EIA reactivity of human serum sample 4 ([1]; serum sample 4, negative for TTV DNA by PCR, serum 1:100, peptide coated 10 μg/ml, OD over 0.500 positive): 0.08 OD; optical density (OD) at 405 nm, EIA reactivity of human serum sample 5 ([1]; serum sample 5, negative for TTV DNA by PCR, serum 1:100, peptide coated 10 μg/ml, OD over 0.500 positive): 0.07 OD; optical density (OD) at 405 nm, EIA reactivity of human serum sample 6 ([1]; serum sample 6, negative for TTV DNA by PCR, serum 1:100, peptide coated 10 μg/ml, OD over 0.500 positive): 0.10 OD; optical density (OD) at 405 nm, EIA reactivity of human serum sample 7 ([1]; serum sample 7, negative for TTV DNA by PCR, serum 1:100, peptide coated 10 μg/ml, OD over 0.500 positive): 0.07 OD; optical density (OD) at 405 nm, EIA reactivity of human serum sample 9 ([1]; serum sample 9, positive for TTV DNA by PCR, serum 1:100, peptide coated 10 μg/ml, OD over 0.500 positive): 0.10 OD; optical density (OD) at 405 nm, EIA reactivity of human serum sample 11 ([1]; serum sample 11, negative for TTV DNA by PCR, serum 1:100, peptide coated 10 μg/ml, OD over 0.500 positive): 0.09 OD; optical density (OD) at 405 nm, EIA reactivity of human serum sample 18 ([1]; serum sample 18, positive for TTV DNA by PCR, serum 1:100, peptide coated 10 μg/ml, OD over 0.500 positive): 0.10 OD; optical density (OD) at 405 nm, EIA reactivity of human serum sample 36 ([1]; serum sample 36, positive for TTV DNA by PCR, serum 1:100, peptide coated 10 μg/ml, OD over 0.500 positive): 0.08 OD; optical density (OD) at 405 nm, EIA reactivity of human serum sample 48 ([1]; serum sample 48, positive for TTV DNA by PCR, serum 1:100, peptide coated 10 μg/ml, OD over 0.500 positive): 0.08 OD; optical density (OD) at 405 nm, EIA reactivity of human serum sample 98 ([1]; serum sample 98, positive for TTV DNA by PCR, serum 1:100, peptide coated 10 μg/ml, OD over 0.500 positive): 0.08 OD; optical density (OD) at 405 nm, EIA reactivity of human serum sample 110 ([1]; serum sample 110, positive for TTV DNA by PCR, serum 1:100, peptide coated 10 μg/ml, OD over 0.500 positive): 0.10 OD; optical density (OD) at 405 nm, EIA reactivity of human serum sample 155 ([1]; serum sample 155, positive for TTV DNA by PCR, serum 1:100, peptide coated 10 μg/ml, OD over 0.500 positive): 0.14 OD; optical density (OD) at 405 nm, EIA reactivity of human serum sample 157 ([1]; serum sample 157, positive for TTV DNA by PCR, serum 1:100, peptide coated 10 μg/ml, OD over 0.500 positive): 0.16 OD |
| LIRSPFTDPQLLVHTDP (Peptide Immunogen) [compound 51, overlapping synthetic peptide of TTV ORF1] | 0.06 | 0.09 | 0.08 | 0.10 | 0.12 | 0.24 | 0.13 | 0.07 | 0.13 | 0.07 | 0.08 | 0.08 | 0.11 | 0.09 | 0.24 | 0.78 | Reactive | 0.899 | 1.697 | 0.903 |  |
